Patent publication US7118747B2, “AT4 receptor ligands as angiogenic, anti-angiogenic, and anti-tumor agents” (Pacific Northwest Biotechnology Inc., priority 2003, dated 2006)

Tests used:
[1] = test system: Human umbilical vein endothelial cells (HUVEC); test: HUVEC growth, MTT assay; assay type: cell-based
Description: These initial observations were extended to human endothelial cells (FIG. 1A) where application of the high affinity agonist, Nle^1-Ang IV (Sardinia et al., 1994; Wright et al., 1999), produces a dose-dependent increase in growth. Human umbilical vein endothelial cells (HUVEC) were grown in EGM (Clonetics) and 10% calf serum for four days in the absence (control) or presence of 10^−8 M, 10^−10 M, or 10^−12 M Nle^1-Ang IV. Cell proliferation was estimated by monitoring mitochondrial activity with the redox-sensitive substrate 3-[4,5-Dimethylthiazol-2-yl]-2,5-diphenyltetrazolium bromide (MTT) (Carmicheal et al., 1987).
(§1) Most relevant for anti-angiogenic cancer treatment is the ability of AT4 antagonists to inhibit endothelial cell growth in culture. Attenuated growth has been observed with both CVECs and with HUVECs (FIG. 1B). After four days of treatment with 10^−10 M Nle^1, Leu^3-Ψ(CH2—NH2)^3-4-Ang IV (NORLEUAL), a potent AT4 receptor antagonist (Kramar et al., 2001), growth of CVECs was reduced to 25% of control (Mean±SEM; n=8; p<.001). […] Cell proliferation was again estimated using the MTT assay.

[2] = test system: Rat aortic rings; test: Ex vivo rat aortic ring angiogenesis assay; details: 3 days in basal medium with varying concentrations; p<0.02 for 10^-6 M
Description: (§2) This prediction has been borne out in studies examining the anti-angiogenic activity of the AT4 receptor antagonist, NORLEUAL, using an ex vivo aortic ring model (FIG. 5) and an in vivo disc angiogenesis assay system in rats (FIG. 6). The data shown in FIG. 5 illustrate the dramatic ability of an AT4 receptor antagonist to inhibit neovascular growth. Rat aortic rings were incubated for 24 hours in a growth factor rich medium (EGM-2) followed by 3 days of incubation in a basal medium (control) or basal media with varying concentrations of NORLEUAL. The data shown in FIG. 5A compare an untreated control ring and a ring treated with 10^−6 M NORLEUAL. […] Disks (1 cm diameter) composed of surgical sponge sandwiched between impermeable membranes were implanted subcutaneously in the backs of rats. In the center of the disks was a pellet containing the test material. The disks were removed 10 days after implantation, paraffin sectioned, stained with Coomassie blue, and analyzed by quantitative image analysis methods to determine the vascularized area. […] Data from discs containing no drug (control), an AT4 receptor agonist (Cpnd 1), or an AT4 receptor antagonist (Cpnds 2-4). Cmpd 2 is NORLEUAL. Each disc contained 10 micrograms of drug. Data is presented as the percent of the total disc area that is vascularized (Mean±SEM; n=8).

[3] = test system: murine breast cancer cells; test: Lung metastasis after tail vein injection of breast cancer cells; assay type: in vivo, mice; details: Elvax pellets with 0.3 mg bilaterally
Description: In addition to inhibiting primary tumor growth, AT4 receptor antagonists are also effective at preventing the growth of lung metastases (as assessed by total lung weight and the presence of metastatic tumor nodules) in mice that have had breast cancer cells injected via the tail vein (FIG. 9). In these experiments the drug was applied using Elvax slow-release pellets that were implanted into the gluteus maximus muscle coincident with the injection of tumor cells into the tail vein. Mice were injected with 5×10^5 murine breast cancer cells and bilaterally implanted with Elvax pellets containing 0.3 mg of NORLEUAL. Lungs were harvested 7 weeks after tumor cell injection and weighed. […] In order to compare just the added lung weight due to tumor infiltration, tumor burden was calculated by subtracting the mean lung weight of wild type untreated controls from the weight of lungs from experimental groups. The mean lung weight of the untreated tumor controls was normalized to 100. Typically, the lung weights of cancer injected, non-treated mice were 50% greater than non-injected controls and treated mice. Spleen weight, another indication of tumor burden, was also normal in treated mice.

[4] = test system: Human dermal fibroblasts; test: Net deposition of extracellular matrix protein, anti-fibronectin stain; assay type: cell-based; details: 10^-12 M, 3 days
Description: (§3) Human dermal fibroblasts and C6 glioma cells (astrocyte tumor) were treated with 10^−12 M NORLEUAL for 3 days. Cells were stripped with 0.25 % Triton X-100 for 10 minutes and stained with either Coomassie blue (gliomas) or anti-fibronectin (fibroblasts). Stained dots remaining after treatment are nuclei. Although the mechanism responsible for the lose of ECM proteins has yet to be fully elucidated, a contributing factor could be AT4 receptor-dependent alterations in the expression of matrix metalloproteinases. Application of AT4 receptor ligands to rabbit cardiac fibroblasts initiated marked changes in the expression of various matrix metalloproteinases (MMPs) (FIG. 3). Conditioned media from cardiac fibroblasts treated with various AT4 receptor ligands for 12 hours was loaded and run on a 10% SDS-polyacrylamide gel containing the 1% gelatin, an MMP substrate. After renaturation and activation of MMPs, the gel was incubated at 37° C. for 24 hours to allow for the degradation of gelatin at sites within the gel where MMPs reside. These sites are seen as unstained lytic bands on a background of stained and undegraded gelatin. Lane one is control media from cells with no exposure to AT4 receptor ligands. Lanes 2-4 contained media from cells treated with Nle^1-Ang IV, a putative AT4 receptor agonist, at concentrations of 1 nM, 10 nM, and 100 nM respectively. […]

[5] = test system: C6 glioma cells; test: Net deposition of extracellular matrix protein, Coomassie blue stain; assay type: cell-based; details: 10^-12 M, 3 days
Description: as §3

[6] = test system: bovine coronary venular endothelial cells (CVEC); test: CVEC growth, MTT assay; assay type: cell-based; details: 10^-10 M, four days of treatment
Description: as §1

[7] = test system: +SA-WAZ-2T mouse breast cancer cells; test: Primary mammary tumor growth and vascularization with slow-release pellet; assay type: in vivo; details: mice
Description: To test this prediction mice were implanted with […]+SA-WAZ-2T mouse breast cancer cells (a highly aggressive and metastatic cell line) (Danielson et al., 1980) directly into the mammary gland in the presence or absence of a slow-release pellet containing the AT4 antagonist, NORLEUAL at various concentrations (FIG. 7; FIG. 14[color version]). Mouse mammary glands were injected with 5×10^5 cells. […] Tumors were removed and weighed at various time points. Data shown represents one of three experiments that yielded identical results. […] Arrows indicate large blood vessels in the control tumor. […] The highest dose examined inhibited growth more than 97%. Equally dramatic as the reduced size of the tumors was their lack of vascularization. […] Tumors were harvested after 5 weeks of drug application and stained for Factor VIII. […] The quantitative data shown in FIG. 8B indicates the number of visible blood vessels in an average high power field. Data are mean+/−SEM, n=6.

[8] = test system: HUVECs; test: Net deposition of extracellular matrix protein, Coomassie blue stain; assay type: cell-based, human; details: 10^-12 M, 3 days
Description: HUVECs and the mouse breast cancer cell line, +SA-WAZ-2T was exposed to the AT4 receptor antagonist NORLEUAL at 10^−12 M for 3 days. Cells were then stripped with 0.25% Triton X-100 and stained with Coomassie blue to visualize total ECM protein. Without an ECM platform endothelial cells fail to migrate and are unable to stabilize new blood vessels.

[9] = test system: MDA-MB-231 human breast cancer cells; test: MDA-MB-231 growth, MTT assay; assay type: cell-based; details: 10^-12 M, four days in culture
Description: Because of the marked effectiveness of AT4 receptor antagonists to inhibit the growth and metastasis of breast cancer in vivo, and the generally disappointing activity of anti-angiogenic molecules seen in clinical trials (Kerbel and Folkman, 2002), we decided to ascertain whether these drugs might have a direct effect on tumor cells as well as inhibiting angiogenesis. The growth of MDA-MB-23 1 cells, an aggressive estrogen-independent human cell line was inhibited by all concentrations that were examined (FIG. 10). Growth was assessed using the mitochondrial activity dye MTT after four days in culture. Growth was reduced to less than 25% of control by a concentration of NORLEUAL of 10^−12 M (Mean+/−SEM; n=6). […] The unusual reversed dose-response curve seen with the MDA-MB-231 cells may represent differential effects on multiple receptor subtypes with varied ligand affinities. […] The ability of AT4 receptor antagonists to inhibit both the angiogenic process as well as the proliferation of human cancer cells makes them unique among anti-cancer agents and provides a plausible explanation for their dramatic ability to inhibit tumor growth and metastasis.

[10] = test system: bovine coronary venular endothelial cells (CVEC); details: cultured CVEC (Hall et al., 1995); cited from earlier work
[11] = test system: angiogenesis into subcutaneously implanted disc; test: In vivo disc angiogenesis assay; details: rat, 10 micrograms of drug per disc, 10 days after implantation
Description: as §2

Row | Substance | growth of HUVECs, largest decrease ([1]; 10^-6 M) | vessel growth in aortic rings [2] | lung metastases ([3]; mice, lungs harvested at 7 weeks) | spleen weight, indication of tumor burden ([3]; treated mice) | deposited ECM [4] | deposited ECM [5] | growth of CVECs [6] | inhibition of primary tumor growth ([7]; highest dose examined, Elvax pellet in mammary gland) | tumor vascularization, Factor VIII stained sections ([7]; tumors harvested after 5 weeks of drug application) | density of endothelial-associated ECM [8] | growth of MDA-MB-231 cells [9] | maximum observed increase in endothelial cell proliferation ([1]; HUVEC, four days, 10^-8, 10^-10 or 10^-12 M) | rate of 3H-thymidine incorporation [10] | angiogenesis, percent of total disc area vascularized [11]
1 | Nle^1, Leu^3-Ψ(CH2—NH2)^3-4-Ang IV [NORLEUAL] | 39 % control | inhibition of vessel growth | no gross or microscopic indication of metastases | normal | near total loss of deposited ECM | near total loss of deposited ECM | 25 % of control | more than 97% | nearly avascular | dramatic reduction in the density of the endothelial-associated ECM | less than 25 % of control | – | – | –
2 | Nle^1-Ang IV | – | – | – | – | – | – | – | – | – | – | – | 330 % of control levels | augment the rate of ^3H-thymidine incorporation | trend toward enhancing angiogenesis
